# According to patent publication EP0369744B1, “Xanthine derivatives, process for their preparation and pharmaceutical compositions” (SMITHKLINE BEECHAM PHARMA GmbH, priority 1988, dated 1990):
# Test system: gerbils
# Experiment: Delayed neuronal death in gerbils after transient forebrain ischaemia
# Type: in vivo
# Protocol: Ischaemia was produced in adult male gerbils by occlusion of both common carotid arteries for 3 minutes under halothane/nitrous oxide anaesthesia. During surgery the animals were placed upon a warming blanket. The ischaemia led to neuronal degeneration and to disturbed brain function.
# Brains were removed 2 weeks later and 12 µm thick coronal slices were examined light microscopically for neuronal degeneration.
# Three groups of animals were used: • 1. sham ligated controls • 2. solvent-treated ligated controls • 3. compound-treated ligated animals The compound was administered 1 hour before the ligation period.
# Means ± SEM (n) of histopathological score [HPS] which reflects the degree of neuronal damage in the hippocampal CA1 field: 0 = no damaged neurons 1 = mild necrosis 2 = moderate necrosis 3 = severe necrosis 4 = complete necrosis
smiles,measurement,value
"O=c1c2[nH]cnc2n(CC2CC2)c(=O)n1CC1CC1 [Example 1, 1,3-Di-cyclopropylmethyl xanthine]",ischaemia induced neuronal degeneration (conclusion),significantly prevented ischaemia induced neuronal degeneration
